Test results: paper PMC4050309, “Five New Guanacastane-Type Diterpenes from Cultures of the Fungus Psathyrella candolleana” (Natural Products and Bioprospecting, 2014)

Tests used:
[1] = target: T1, mouse 11β-HSD1 (11β-hydroxysteroid dehydrogenase) (Mus musculus, UniProt P50172); assay: scintillation proximity assay, [3H]cortisone to [3H]cortisol, microsomes overexpressing […]β-HSD1; format: biochemical
T1 construct: gene Hsd11b1; full-length cDNA, microsomal fraction of stably transfected HEK-293 cells

[2] = target: T2, human 11β-HSD1 (11β-hydroxysteroid dehydrogenase) (Homo sapiens, UniProt P28845); assay: as above; format: biochemical
T2 construct: gene HSD11B1; full-length cDNA, microsomal fraction of stably transfected HEK-293 cells
T2 sequence (P28845 whole entry): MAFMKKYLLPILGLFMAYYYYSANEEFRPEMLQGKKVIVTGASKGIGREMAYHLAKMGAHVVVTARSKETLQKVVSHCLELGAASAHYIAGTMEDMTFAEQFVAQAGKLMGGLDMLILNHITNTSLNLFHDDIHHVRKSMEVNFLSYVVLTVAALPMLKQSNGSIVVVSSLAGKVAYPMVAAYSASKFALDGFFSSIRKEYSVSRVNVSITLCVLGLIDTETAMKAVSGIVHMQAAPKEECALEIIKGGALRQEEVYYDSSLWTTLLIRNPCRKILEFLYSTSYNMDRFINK

T1 sequence (P50172 whole entry): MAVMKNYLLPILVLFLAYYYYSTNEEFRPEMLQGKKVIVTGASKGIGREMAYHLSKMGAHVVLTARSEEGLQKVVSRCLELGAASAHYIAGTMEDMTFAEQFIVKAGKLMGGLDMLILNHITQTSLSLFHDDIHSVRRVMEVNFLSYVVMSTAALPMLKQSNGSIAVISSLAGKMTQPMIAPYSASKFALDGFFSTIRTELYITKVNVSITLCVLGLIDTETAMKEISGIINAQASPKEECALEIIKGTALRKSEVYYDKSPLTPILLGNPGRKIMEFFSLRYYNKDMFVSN

Row | Structure (SMILES) | IC50 [1] | IC50 [2]
1 | CC1(C)[C@@H](O[C@H]2O[C@H](C(=O)O)[C@@H](O)[C@H](O)[C@H]2O[C@@H]2O[C@H](C(=O)O)[C@@H](O)[C@H](O)[C@H]2O)CC[C@]2(C)[C@H]3C(=O)C=C4[C@@H]5C[C@@](C)(C(=O)O)CC[C@]5(C)CC[C@@]4(C)[C@]3(C)CC[C@@H]12 [glycyrrhizinic acid] | 0.0065 µM | 0.0042 µM
2 | CC(C)C1=C(O)C(=O)C2=CC3=C(CO)C(=O)CC[C@@]3(C)CC[C@@]21C [compound 3, Guanacastepene R] | 13.9 µM | 6.2 µM
